Holding throughout (format): binding
Test [1] deals with kinases (KINOMEscan panel) (Homo sapiens, UniProt P50613). Particulars: kinase CDK7; NEW KINOMEscan.
The target of test [2] is T1, kinases (KINOMEscan panel) (Homo sapiens, UniProt Q92772).
T1 sequence (Q92772 1-493): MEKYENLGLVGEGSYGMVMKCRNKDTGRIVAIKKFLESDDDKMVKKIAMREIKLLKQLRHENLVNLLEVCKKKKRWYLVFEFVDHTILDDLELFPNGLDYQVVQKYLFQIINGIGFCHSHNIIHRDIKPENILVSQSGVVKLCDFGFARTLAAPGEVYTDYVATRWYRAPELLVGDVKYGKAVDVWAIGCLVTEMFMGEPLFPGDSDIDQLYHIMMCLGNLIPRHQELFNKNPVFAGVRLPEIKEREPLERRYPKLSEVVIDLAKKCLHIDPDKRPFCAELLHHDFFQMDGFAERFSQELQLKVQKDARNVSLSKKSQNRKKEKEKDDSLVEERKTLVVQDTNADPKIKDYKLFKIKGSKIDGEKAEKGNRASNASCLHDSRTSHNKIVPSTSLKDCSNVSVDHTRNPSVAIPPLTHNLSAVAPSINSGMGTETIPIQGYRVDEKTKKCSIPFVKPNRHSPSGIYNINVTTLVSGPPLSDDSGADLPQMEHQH
Particulars: CDKL2; NEW KINOMEscan.

Test [3] concerns the target T2, kinases (KINOMEscan panel) (Homo sapiens, UniProt P21709).
T2 sequence (P21709 26-976): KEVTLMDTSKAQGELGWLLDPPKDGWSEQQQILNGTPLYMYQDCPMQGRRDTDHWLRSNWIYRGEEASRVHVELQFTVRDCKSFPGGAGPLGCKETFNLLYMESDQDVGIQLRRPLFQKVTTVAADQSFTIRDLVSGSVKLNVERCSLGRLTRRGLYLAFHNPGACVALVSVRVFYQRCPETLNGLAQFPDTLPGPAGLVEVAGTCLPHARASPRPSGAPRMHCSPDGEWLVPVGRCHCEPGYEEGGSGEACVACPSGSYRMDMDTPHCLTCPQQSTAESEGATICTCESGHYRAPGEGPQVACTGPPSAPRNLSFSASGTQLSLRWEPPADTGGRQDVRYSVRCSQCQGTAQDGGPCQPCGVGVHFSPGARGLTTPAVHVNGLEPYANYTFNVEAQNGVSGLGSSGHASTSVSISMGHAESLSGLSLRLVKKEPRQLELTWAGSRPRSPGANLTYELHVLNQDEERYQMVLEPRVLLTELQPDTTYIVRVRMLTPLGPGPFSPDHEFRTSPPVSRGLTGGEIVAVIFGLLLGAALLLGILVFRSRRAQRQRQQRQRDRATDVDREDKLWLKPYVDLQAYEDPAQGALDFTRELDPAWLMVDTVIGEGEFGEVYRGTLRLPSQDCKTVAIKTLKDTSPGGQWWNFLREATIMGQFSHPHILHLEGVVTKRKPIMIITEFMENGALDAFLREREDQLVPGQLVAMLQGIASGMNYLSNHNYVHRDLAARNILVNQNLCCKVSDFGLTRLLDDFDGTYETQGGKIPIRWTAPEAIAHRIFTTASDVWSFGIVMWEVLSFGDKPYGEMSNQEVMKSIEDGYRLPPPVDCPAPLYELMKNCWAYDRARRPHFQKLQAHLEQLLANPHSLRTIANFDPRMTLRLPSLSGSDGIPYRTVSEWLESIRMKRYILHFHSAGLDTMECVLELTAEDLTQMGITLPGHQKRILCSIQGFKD
To be noted: EPHA1; NEW KINOMEscan.

In test [4] the target is kinases (KINOMEscan panel) (Homo sapiens, UniProt P00533). To be noted: kinase EGFR; NEW KINOMEscan.
Test [5] has as its target kinases (KINOMEscan panel) (Homo sapiens, UniProt Q5S007, G2019S). To be noted: NEW KINOMEscan.
In test [6] the target is kinases (KINOMEscan panel) (Homo sapiens, UniProt Q9UIK4). To be noted: kinase DAPK2; NEW KINOMEscan.
Chain of kinases (KINOMEscan panel) (Homo sapiens, UniProt Q9UIK4) (Q9UIK4 whole entry): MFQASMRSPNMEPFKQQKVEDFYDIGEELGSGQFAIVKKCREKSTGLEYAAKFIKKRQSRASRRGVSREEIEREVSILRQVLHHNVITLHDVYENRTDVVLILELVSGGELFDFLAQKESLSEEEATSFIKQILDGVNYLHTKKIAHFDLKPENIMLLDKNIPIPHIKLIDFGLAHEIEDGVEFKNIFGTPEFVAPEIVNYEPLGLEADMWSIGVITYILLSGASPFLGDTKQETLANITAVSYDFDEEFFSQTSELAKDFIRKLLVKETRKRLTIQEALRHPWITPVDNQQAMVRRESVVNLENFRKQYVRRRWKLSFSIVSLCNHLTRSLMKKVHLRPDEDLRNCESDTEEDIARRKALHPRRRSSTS
Test [7] addresses kinases (KINOMEscan panel) (Homo sapiens, UniProt P78362). To be noted: SRPK2; NEW KINOMEscan.
For test [8], the target named is kinases (KINOMEscan panel) (Homo sapiens, UniProt P49336). Particulars: CDK8; NEW KINOMEscan.
Chain of kinases (KINOMEscan panel) (Homo sapiens, UniProt P49336) (P49336 whole entry): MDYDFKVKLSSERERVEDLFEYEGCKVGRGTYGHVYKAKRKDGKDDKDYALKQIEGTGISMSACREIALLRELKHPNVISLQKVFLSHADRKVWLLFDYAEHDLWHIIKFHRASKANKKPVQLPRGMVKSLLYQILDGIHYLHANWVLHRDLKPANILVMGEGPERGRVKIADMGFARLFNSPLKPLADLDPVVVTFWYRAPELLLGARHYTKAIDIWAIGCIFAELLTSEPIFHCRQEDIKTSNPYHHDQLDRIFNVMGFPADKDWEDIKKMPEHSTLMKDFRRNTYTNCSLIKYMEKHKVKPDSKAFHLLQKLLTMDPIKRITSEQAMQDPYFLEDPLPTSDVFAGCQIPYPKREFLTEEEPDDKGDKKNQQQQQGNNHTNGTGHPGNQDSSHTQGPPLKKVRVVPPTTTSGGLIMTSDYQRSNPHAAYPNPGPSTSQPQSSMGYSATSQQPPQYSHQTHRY
In test [9] the target is T3, kinases (KINOMEscan panel) (Homo sapiens, UniProt P51956).
T3 sequence (P51956 1-506): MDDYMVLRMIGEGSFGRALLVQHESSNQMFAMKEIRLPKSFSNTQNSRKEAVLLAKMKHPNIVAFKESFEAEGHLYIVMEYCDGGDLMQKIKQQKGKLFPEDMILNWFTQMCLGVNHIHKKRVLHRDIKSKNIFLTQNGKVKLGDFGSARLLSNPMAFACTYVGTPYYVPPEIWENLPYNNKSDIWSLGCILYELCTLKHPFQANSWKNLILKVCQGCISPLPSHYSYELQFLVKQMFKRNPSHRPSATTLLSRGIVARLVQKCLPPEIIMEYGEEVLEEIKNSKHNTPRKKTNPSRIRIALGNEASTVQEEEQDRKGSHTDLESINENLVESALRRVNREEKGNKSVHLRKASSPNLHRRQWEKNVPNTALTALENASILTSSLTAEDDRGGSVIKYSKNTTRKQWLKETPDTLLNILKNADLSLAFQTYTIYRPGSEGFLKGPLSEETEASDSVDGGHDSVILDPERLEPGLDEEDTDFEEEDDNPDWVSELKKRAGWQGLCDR
Particulars: kinase NEK3; NEW KINOMEscan.

The target of test [10] is kinases (KINOMEscan panel) (Homo sapiens, UniProt P22607). Particulars: FGFR3; NEW KINOMEscan.
Chain of kinases (KINOMEscan panel) (Homo sapiens, UniProt P22607) (P22607 23-806): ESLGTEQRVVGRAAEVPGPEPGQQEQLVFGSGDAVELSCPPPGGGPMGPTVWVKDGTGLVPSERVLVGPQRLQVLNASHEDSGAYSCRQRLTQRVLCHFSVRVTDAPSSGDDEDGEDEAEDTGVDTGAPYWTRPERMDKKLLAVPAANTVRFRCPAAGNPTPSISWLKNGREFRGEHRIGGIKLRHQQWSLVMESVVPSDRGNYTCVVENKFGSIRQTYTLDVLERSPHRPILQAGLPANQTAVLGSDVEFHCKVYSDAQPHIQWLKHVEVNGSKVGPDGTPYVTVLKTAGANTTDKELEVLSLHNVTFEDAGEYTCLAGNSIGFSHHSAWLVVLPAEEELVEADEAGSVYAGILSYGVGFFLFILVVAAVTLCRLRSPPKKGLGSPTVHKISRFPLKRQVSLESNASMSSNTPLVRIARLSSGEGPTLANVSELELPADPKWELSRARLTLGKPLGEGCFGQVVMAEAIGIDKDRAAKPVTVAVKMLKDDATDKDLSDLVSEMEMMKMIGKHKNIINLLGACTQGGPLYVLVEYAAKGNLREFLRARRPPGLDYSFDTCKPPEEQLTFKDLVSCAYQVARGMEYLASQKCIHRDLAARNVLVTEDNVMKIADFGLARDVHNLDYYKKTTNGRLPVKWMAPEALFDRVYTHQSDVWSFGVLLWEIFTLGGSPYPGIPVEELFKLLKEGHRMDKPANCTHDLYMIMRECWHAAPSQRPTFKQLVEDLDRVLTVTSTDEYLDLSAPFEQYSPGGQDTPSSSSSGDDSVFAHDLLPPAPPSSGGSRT
In test [11] the target is kinases (KINOMEscan panel) (Homo sapiens, UniProt P07949, V804L). Particulars: NEW KINOMEscan.

Chain of kinases (KINOMEscan panel) (Homo sapiens, UniProt P78362) (P78362 whole entry): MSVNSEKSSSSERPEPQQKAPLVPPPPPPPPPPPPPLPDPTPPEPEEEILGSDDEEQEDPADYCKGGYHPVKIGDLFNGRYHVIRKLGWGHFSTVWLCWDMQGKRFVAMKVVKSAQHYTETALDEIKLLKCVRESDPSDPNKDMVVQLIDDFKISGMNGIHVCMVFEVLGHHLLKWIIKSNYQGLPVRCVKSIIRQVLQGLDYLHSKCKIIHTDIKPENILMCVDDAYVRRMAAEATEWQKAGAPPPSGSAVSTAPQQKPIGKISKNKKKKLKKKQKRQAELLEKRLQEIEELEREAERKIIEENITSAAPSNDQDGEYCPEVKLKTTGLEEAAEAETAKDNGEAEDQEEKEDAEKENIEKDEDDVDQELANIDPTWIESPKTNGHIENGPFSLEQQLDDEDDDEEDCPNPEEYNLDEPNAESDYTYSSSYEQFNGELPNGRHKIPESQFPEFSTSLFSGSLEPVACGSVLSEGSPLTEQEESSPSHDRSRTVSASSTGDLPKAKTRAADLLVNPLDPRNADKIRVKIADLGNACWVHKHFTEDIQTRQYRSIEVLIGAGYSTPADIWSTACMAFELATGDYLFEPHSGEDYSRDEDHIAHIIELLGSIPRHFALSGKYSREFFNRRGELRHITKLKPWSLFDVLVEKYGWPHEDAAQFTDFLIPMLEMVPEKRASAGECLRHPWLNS
Chain of kinases (KINOMEscan panel) (Homo sapiens, UniProt Q5S007, G2019S) (Q5S007 whole entry G2019S): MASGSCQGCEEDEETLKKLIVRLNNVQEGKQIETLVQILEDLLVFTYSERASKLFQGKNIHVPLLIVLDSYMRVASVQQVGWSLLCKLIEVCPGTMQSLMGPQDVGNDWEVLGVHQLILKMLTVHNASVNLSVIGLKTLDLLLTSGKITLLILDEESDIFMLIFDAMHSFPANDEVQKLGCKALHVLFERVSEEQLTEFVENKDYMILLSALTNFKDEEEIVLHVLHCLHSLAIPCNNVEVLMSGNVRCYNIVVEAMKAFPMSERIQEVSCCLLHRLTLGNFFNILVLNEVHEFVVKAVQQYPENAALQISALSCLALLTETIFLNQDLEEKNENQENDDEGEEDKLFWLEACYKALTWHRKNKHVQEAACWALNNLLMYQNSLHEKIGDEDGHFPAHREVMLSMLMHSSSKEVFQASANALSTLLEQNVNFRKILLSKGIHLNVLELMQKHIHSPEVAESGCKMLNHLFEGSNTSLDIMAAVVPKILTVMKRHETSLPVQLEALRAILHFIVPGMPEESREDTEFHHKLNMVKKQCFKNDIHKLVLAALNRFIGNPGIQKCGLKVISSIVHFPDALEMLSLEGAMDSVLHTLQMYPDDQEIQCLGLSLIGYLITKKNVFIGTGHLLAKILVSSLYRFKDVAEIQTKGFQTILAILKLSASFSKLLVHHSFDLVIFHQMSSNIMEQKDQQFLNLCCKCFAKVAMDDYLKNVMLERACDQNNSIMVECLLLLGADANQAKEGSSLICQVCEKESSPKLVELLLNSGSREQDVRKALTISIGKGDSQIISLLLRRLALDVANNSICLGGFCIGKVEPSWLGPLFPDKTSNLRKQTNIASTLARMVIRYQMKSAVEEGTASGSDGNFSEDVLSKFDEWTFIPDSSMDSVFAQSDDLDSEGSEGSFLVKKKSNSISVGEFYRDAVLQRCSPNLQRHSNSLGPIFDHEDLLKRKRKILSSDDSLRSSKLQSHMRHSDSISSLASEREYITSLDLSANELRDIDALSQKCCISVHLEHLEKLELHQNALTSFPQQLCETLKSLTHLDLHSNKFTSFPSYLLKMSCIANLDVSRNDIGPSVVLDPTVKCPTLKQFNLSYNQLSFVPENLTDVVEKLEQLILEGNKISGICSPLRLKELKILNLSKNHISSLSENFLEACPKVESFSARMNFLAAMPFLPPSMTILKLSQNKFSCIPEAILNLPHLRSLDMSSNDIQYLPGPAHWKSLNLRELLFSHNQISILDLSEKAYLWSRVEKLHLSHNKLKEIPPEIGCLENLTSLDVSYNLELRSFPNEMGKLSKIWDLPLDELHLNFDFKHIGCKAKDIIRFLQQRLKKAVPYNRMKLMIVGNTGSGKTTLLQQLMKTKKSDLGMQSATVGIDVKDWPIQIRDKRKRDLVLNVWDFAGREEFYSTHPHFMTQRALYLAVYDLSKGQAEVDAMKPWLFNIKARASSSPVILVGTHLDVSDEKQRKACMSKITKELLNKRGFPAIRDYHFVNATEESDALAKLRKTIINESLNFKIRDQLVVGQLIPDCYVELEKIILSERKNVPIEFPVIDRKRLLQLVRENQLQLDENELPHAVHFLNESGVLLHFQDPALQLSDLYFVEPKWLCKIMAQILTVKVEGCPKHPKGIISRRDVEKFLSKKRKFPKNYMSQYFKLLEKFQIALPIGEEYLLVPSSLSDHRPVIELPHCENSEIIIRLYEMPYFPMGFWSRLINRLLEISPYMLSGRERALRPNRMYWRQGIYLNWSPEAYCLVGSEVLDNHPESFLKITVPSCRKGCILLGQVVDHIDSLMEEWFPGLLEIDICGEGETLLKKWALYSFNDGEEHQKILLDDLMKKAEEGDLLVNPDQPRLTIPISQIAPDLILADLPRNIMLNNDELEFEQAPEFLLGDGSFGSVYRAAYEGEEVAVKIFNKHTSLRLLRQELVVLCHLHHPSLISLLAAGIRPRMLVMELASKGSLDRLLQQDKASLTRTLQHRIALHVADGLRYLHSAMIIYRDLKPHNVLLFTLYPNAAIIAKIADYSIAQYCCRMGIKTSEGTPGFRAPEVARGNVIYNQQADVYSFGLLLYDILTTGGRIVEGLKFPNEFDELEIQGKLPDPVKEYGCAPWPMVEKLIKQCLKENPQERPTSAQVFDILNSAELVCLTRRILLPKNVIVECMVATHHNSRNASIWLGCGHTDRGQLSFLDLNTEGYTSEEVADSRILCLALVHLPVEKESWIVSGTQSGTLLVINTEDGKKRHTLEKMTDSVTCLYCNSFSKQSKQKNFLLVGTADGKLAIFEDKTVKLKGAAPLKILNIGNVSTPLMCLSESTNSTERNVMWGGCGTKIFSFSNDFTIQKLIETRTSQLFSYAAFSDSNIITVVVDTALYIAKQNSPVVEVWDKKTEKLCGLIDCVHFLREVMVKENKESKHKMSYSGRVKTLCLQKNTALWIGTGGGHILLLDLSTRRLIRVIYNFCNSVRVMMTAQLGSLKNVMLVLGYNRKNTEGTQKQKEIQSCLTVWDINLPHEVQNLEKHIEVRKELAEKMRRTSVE

For `Cc1cccc(-c2nc(Nc3ccc4nn(C)cc4c3)c3ccccc3n2)n1` [NK167], in test [1], the “KINOMEscan CDK7” value is 0. In [2], the “KINOMEscan CDKL2” value was 0. The “KINOMEscan EPHA1” value in [3] is recorded as 1. The “KINOMEscan EGFR” value in test [4] was determined as 0. Further, the “KINOMEscan LRRK2(G2019S)” value in test [5] worked out at 39. In addition, in test [6], the “KINOMEscan DAPK2” value is 0. Further, in [7], the “KINOMEscan SRPK2” value is 0. In addition, in [8], the “KINOMEscan CDK8” value is reported as 19. For the same compound, in test [9], the “KINOMEscan NEK3” value was 46. For the same compound, the “KINOMEscan FGFR3” value in [10] is 0. The “KINOMEscan RET(V804L)” value in test [11] is 0.

For the compound `Cc1cccc(-c2nc(N(C)c3ccc4ncsc4c3)c3ccccc3n2)n1` [NK-161], the “KINOMEscan CDK7” value in [1] was found to be 7. In addition, the “KINOMEscan CDKL2” value in [2] was determined as 0. In [3], the “KINOMEscan EPHA1” value was found to be 0. In test [4], the “KINOMEscan EGFR” value came out at 1. For the same compound, in [5], the “KINOMEscan LRRK2(G2019S)” value came out at 31. Also, the “KINOMEscan DAPK2” value in [6] was 0. Also, the “KINOMEscan SRPK2” value in [7] stood at 0. The “KINOMEscan CDK8” value in [8] is recorded as 12. Moreover, the “KINOMEscan NEK3” value in [9] is 33. Further, the “KINOMEscan FGFR3” value in test [10] is recorded as 1. In addition, the “KINOMEscan RET(V804L)” value in test [11] was 15.

Values taken from paper PMC9851200, “Multiparameter phenotypic screening for endogenous TFEB and TFE3 translocation identifies novel chemical series modulating lysosome function” (Autophagy, 2022).
